What was measured:
MAO-B = biological target: T1, MAO-B (Homo sapiens, UniProt P27338); test: Monoamine oxidase B inhibition; assay type: biochemical
T1 sequence (P27338 1-520): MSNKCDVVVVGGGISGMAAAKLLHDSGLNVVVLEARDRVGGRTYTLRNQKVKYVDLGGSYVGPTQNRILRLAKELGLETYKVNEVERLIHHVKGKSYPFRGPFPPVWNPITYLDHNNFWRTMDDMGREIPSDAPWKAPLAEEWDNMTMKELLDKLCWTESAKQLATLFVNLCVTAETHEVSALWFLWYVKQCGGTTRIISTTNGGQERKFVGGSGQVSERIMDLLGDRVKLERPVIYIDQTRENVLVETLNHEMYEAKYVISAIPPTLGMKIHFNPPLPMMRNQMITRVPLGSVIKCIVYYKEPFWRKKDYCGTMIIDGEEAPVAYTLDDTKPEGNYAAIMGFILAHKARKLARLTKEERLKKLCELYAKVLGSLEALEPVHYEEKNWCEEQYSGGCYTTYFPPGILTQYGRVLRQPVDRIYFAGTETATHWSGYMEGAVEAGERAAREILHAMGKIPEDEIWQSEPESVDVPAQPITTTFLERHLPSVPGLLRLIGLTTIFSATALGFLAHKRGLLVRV

MAO-A = biological target: T2, MAO-A (Homo sapiens, UniProt P21397); test: Monoamine oxidase A inhibition; assay type: biochemical
T2 sequence (P21397 1-527): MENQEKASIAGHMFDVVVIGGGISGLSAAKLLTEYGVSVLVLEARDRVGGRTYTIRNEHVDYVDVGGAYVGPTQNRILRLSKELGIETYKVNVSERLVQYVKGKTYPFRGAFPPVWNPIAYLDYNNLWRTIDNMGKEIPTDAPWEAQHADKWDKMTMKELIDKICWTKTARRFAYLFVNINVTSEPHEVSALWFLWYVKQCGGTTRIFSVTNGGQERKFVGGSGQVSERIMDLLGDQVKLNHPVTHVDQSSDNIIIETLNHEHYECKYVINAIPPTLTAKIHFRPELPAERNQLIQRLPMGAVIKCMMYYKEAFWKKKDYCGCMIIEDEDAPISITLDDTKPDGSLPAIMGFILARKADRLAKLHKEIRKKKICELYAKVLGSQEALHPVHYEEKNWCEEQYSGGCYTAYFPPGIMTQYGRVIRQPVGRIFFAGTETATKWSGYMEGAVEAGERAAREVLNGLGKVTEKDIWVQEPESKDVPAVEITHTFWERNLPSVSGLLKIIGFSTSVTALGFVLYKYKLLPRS

[1] = Solubility in organic solvents; assay type: physicochemical; conditions: solvents in which the compound is soluble

For `CCOC(=O)C1=C(Nc2ccc(F)cc2)CC(c2ccc(C(F)(F)F)cc2)N(c2ccc(F)cc2)C1c1ccc(C(F)(F)F)cc1` (stereo not drawn) [FTEAA, Ethyl 4-(4-fluorophenylamino)-2,6-bis(4-(trifluoromethyl)phenyl)-1-(4-fluoro-phenyl)-1,2,5,6-tetrahydropyridine-3-carboxylate], the IC50 (MAO-B) was 1020 ± 110 nM, the IC50 (MAO-A) was 520 ± 30 nM and the solubility [1] was “acetone, chloroform, dichloromethane, ethyl acetate and ethanol”.

Reference: paper PMC9404513 (ACS Omega, 2022)
